Test [1] deals with T1, PPARG (Homo sapiens, UniProt P37231).
T1 construct: endogenous in cells; host or cells: RT112/84 bladder cancer cells (FABP4-NLucP knock-in clone)
T1 sequence (P37231 1-477 isoform P37231-2): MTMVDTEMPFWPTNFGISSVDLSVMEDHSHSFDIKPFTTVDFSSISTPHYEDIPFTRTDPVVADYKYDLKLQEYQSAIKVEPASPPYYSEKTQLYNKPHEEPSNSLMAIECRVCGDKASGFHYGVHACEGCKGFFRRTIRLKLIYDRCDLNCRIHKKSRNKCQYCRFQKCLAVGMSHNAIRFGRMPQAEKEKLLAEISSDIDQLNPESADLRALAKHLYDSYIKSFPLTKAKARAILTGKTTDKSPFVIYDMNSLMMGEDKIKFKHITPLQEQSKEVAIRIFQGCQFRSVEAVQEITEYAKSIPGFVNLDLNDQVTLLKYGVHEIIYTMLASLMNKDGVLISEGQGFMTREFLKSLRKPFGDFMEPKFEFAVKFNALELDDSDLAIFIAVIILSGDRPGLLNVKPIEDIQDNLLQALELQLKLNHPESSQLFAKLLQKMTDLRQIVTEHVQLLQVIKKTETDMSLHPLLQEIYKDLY
As to the kind of experiment: RT112/84 FABP4-NLucP reporter gene assay, unstimulated. Format: cell-based. An excerpt:
Next, a PPARG reporter cell line was engineered to enable higher throughput assays to evaluate PPARG transactivation. Briefly, a destabilized NanoLuc luciferase reporter gene was inserted into the 3′-UTR of the FABP4 gene in the RT112/84 bladder cancer cell line using CRISPR/Cas9 mediated homology-directed repair (FIG. 4A).
(§1) RT112-FABP4-NLucP Reporter Gene Assay: Reporter cell line was generated by engineering NanoLuc gene into the 3′ UTR of FABP4 in RT112/84 cells using CRISPR/Cas9 guided genome engineering. Single cell clones were generated and the clone with the widest dynamic range selected for use. Assays were performed by seeding 384-well plates with ˜10,000 cells per well in MEMalpha containing 10% FBS and dosing compounds at indicated concentration using HP D300 digital dispenser (HP/Tecan). 18-24 hours after dosing with compound, cells were assayed using NanoGlo Luciferase Assay Reagent (Promega Madison, WI) and plates were read using EnVision Multilabel Reader (PerkinElmer Waltham, MA).

In test [2] the target is T1, PPARG. As to the kind of experiment: RT112/84 FABP4-NLucP reporter gene assay, antagonist mode with rosiglitazone. Format: cell-based. The conditions noted are these: in the presence of rosiglitazone. The protocol: as §1
In general terms: Reporter assays use an easily measured gene product as a stand-in for the process of interest.

Test [3] relates to UM-UC-9 cells. The test can be described thus: Direct cell counting dose-response proliferation assay. Format: cell-based, human. The protocol: To determine whether PPARG modulators affect the proliferation and/or viability of PPARG-activated bladder cancer cell lines, a direct cell counting-based assay was performed. This assay likely avoids potential artifacts associated with the use of an ATP content-based assay, given that PPAR modulators are known to regulate cellular metabolic activity. […] These IC50 values align well with the calculated IC50s from both the cell-based reporter gene assay (FIG. 8A) and the biochemical corepressor assay (FIG. 8D).
(§2) Proliferation Assays: To enable cell-counting experiments, cell lines were transduced with a lentiviral vector encoding nuclear-targeted GFP, TagGFP2-H2B (Evrogen), and stable pools generated following selection for puromycin resistance. Cell lines were maintained for at least 7 days following selection prior to expansion and seeding into 96- or 384-well plates for further analysis. For kinetic proliferation assays, 96-well plates (n 1% 4 per condition) were imaged and counted every two hours using IncuCyte Zoom (Essen BioScience). Media and compounds were replaced approximately every 3-4 days. For endpoint assays to measure dose-response, cells were plated in 384-well plates, dosed with compound, and upon reaching approximately 70% to 90% confluence in control wells, cells were either counted using fluorescence imaging (Incu-Cyte Zoom) or incubated with CyQuant (Thermo Fisher) at the indicated time and plates were read with a fluorescent plate reader.

Test [4] concerns UM-UC-9 cells. The test can be described thus: Kinetic proliferation assay (IncuCyte), percent of DMSO control. Format: cell-based, human. The following applies: 100 nmol/L; DMSO control at 50% confluency.
Text: This assay was expanded to include an additional 8 representative bladder cancer cell lines, including cell lines with PPARG amplification, RXRA p.S427F mutation, activated gene signature, and control cell lines with low level expression of PPARG and target genes. […] Representative data for the UM-UC-9 cell line are shown in FIG. 6B, and is tabulated for the tested bladder cancer cell lines in Table 1. […] Similar results were obtained with these cell lines in parallel studies using clonogenic assays to quantify colony-forming ability (FIG. 10).
as §2, with “Cell lines were maintained for at least 7 days following selection prior to expansion and seeding into 96- or 384-well plates for further analysis.” left out, “Media and compounds were replaced approximately every 3-4 days.” left out

For test [5], the system named is PPARG-activated pancreatic and colorectal cancer cell lines. The test can be described thus: Kinetic proliferation assay in pancreatic and colorectal cancer cell lines. Format: cell-based. The following applies: 500 nM. An excerpt: To enable cell-counting, cell lines were transduced with a lentiviral vector encoding nuclear-targeted GFP (TagGFP2-H2B), and stable pools generated following selection for puromycin-resistance. Cell lines were maintained for at least 7 days following selection prior to expansion and seeding into 96-well plates for further analysis. For kinetic proliferation assays, 96-well plates were imaged in phase-contrast and green fluorescence mode every two hours using IncuCyte Zoom (Essen BioScience, Ann Arbor MI). Using IncuCyte software, the number of fluorescent nuclei were counted to monitor quantitative changes in cell number over time. Media and compounds were replaced approximately every 3-4 days.
DMSO treatment was also included as a vehicle control.

Test [6] addresses T2, PPARG ligand-binding domain - TRAP220/MED1 coactivator peptide (Homo sapiens, UniProt P37231).
T2 construct: purchased ThermoFisher Scientific
T2 sequence (P37231 238-503 limits assumed): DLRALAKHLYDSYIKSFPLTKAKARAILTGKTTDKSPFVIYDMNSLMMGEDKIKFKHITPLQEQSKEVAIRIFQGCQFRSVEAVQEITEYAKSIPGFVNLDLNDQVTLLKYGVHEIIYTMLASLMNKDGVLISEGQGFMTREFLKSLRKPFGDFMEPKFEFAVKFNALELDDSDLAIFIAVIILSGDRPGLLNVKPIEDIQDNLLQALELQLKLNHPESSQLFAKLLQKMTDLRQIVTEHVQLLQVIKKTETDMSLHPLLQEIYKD
The test can be described thus: TR-FRET coactivator assay, TRAP220/MED1 peptide. Format: biochemical. For orientation: TR-FRET usually uses a lanthanide donor and a delayed reading to cut background.

Test [7] concerns the target T3, PPARG ligand-binding domain - SMRT/NCOR2 corepressor peptide (Homo sapiens, UniProt P37231).
T3 construct: purchased ThermoFisher Scientific
T3 sequence (P37231 238-503 limits assumed): T2 sequence (P37231 238-503 limits assumed)
The test can be described thus: TR-FRET corepressor assay, SMRT/NCOR2 peptide. Format: biochemical. On the procedure: To evaluate inverse-agonism, a TR-FRET PPARG co-repressor assay (ThermoFisher) that measures recruitment of a fluorescent NCOR1 or NCOR2 corepressor peptide to the PPARG ligand-binding domain was used (ThermoFisher).
To determine effects on interactions between PPARG and coregulators, PPARG modulators were tested in two TR-FRET biochemical interaction assays for agonism and inverse-agonism. Agonism was quantitated using a coactivator assay, which measured the interaction between the PPARG ligand-binding domain and a fluorescently-labeled peptide from TRAP220/MED1. […] To evaluate inverse-agonism biochemically, ligand-dependent interactions were measured between PPARG ligand-binding domain and corepressor peptides from NCoR/NCOR1 and SMRT/NCOR2.

Take `O=C(Nc1ccccc1)c1cc([N+](=O)[O-])ccc1Cl` [GW9662]: the “effect on unstimulated reporter” value on PPARG [1] is reported as “minimal detectable effect”. At PPARG [2], the “effect on agonist-induced signal” value is “decreased the agonist-induced signal back to the original baseline”. In addition, in the test on UM-UC-9 cells [3], the “effect on cell proliferation compared with DMSO control” value is “no significant effects”. In addition, the “effect on proliferation relative to control” value in the test with UM-UC-9 cells [4] is “no effect”. Moreover, the “sensitivity of cell lines” value in test [5] is “not sensitive”. In test [6], the “effect in coactivator assay” value is on record as “minimal effect”. This compound also displayed an increase in signal in test [7] of 1.7 fold.

(Values after patent publication US11896678B2, “Compositions and methods for treatment of peroxisome proliferator-activated receptor gamma (PPARG) activated cancer” (THE BROAD INSTITUTE, INC., priority 2017, dated 2024).)
